Tested on: class-D producing organism E. coli GC 2883 (OXA-10 + PSE-2)
Test: Antimicrobial susceptibility testing, microbroth dilution (NCCLS): piperacillin combined with β-lactamase inhibitor
Assay type: cell-based
Conditions: MIC of piperacillin combined with constant 4 μg/mL of the β-lactamase inhibitor (example compound), 35° C. for 18 hours
Procedure: Antimicrobial susceptibility testing. The in vitro activities of the antibiotic, piperacillin in this case, against resistant pathogens expressing class-D enzymes were determined by the microbroth dilution method as recommended by the National Committee for Clinical Laboratory Standards (NCCLS). (NCCLS. 2000. Methods for Dilution Antimicrobial Susceptibility Tests for Bacteria That Grow Aerobically; Approved Standards: M7-A5, vol. 19. National Committe for Clinical Laboratory Standards, Villanova, Pa.). Mueller-Hinton II broth (MHBII)(BBL Cockeysville, Md.), was used for the testing procedure. Microtiter plates containing 50 μl per well of two-fold serial dilutions of piperacillin combined with a constant amount (4 μg/mL) of β-lactamase inhibitor (final concentration) were inoculated with 50 μl of inoculum to yield the appropriate density (10^5 CFU/mL) in 100 μL. The plates were incubated for 18-22 hours at 35° C. in ambient air. […] Both OXA-10 and PSE-2 are class D β-lactamases. (Bush, K., Jacoby, G. A., Medeiros, A. A. Antimicrob. Agents Chemother., 1995, 39, 1211).

Row | Molecule | Minimal Inhibitory Concentration (MIC50) [µg/mL]
1 | O=C(O)C1=CS[C@@H]2/C(=C\c3cn4c5c(sc4n3)COCC5)C(=O)N12 [Example 15, (5R),(6Z)-6-(5,8-dihydro-6H-imidazo[2,1-b]pyrano[4,3-d][1,3]thiazol-2-ylmethylene)-7-oxo-4-thia-1-azabicyclo[3.2.0]hept-2-ene-2-carboxylic acid] | 4
2 | COc1ccc2c(c1)sc1nc(/C=C3/C(=O)N4C(C(=O)O)=CS[C@H]34)cn12 [Example 2] | 4
3 | O=C([O-])C1=CS[C@@H]2/C(=C\c3cn4c(cnc5ccccc54)n3)C(=O)N12.[Na+] [Example 6, (5R),(6Z)-6-(Imidazo[1,2-a]quinoxaline-2-ylmethylene)-7-oxo-4-thia-1-azabicyclo[3.2.0]hepto-2-ene-2-carboxylic acid, sodium salt] | 0.06
4 | Cn1c2ccccc2n2cc(/C=C3/C(=O)N4C(C(=O)O)=CS[C@H]34)nc12 [Example 20, (5R),(6Z)-8-[(9-methyl-9H-imidazo[1,2-a]benzimidazol-2-yl)methylene]-7-oxo-4-thia-1-azabicyclo[3.2.0]hept-2-ene-2-carboxylic acid] | 64
5 | O=C(O)C1=CS[C@@H]2/C(=C\c3cn4c(ccc5ccccc54)n3)C(=O)N12 [Example 4, (5R),(6Z)-6-Imidazo[1,2-a]quinolin-2-ylmethylene-7-oxo-4-thia-1-azabicyclo[3.2.0]hept-2-ene-2-carboxylic acid] | 4
6 | O=C(O)C1=CS[C@@H]2/C(=C\c3cn4c5c(sc4n3)CCCC5)C(=O)N12 [Example 19, (5R),(6Z)-7-oxo-6-(5,6,7,8-tetrahydroimidazo[2,1-b][1,3]benzothiazol-2-ylmethylene)-4-thia-1-azabicyclo[3.2.0]hept-2-ene-2-carboxylic acid] | 2
7 | Cc1cccc2sc3nc(/C=C4/C(=O)N5C(C(=O)O)=CS[C@H]45)cn3c12 [Example 13] | 4
8 | O=C(O)C1=CS[C@@H]2/C(=C\c3cn4nc5c(c4s3)CCC5)C(=O)N12 [Example 18, (5R),(6Z)-6-(7,8-dihydro-6H-cyclopenta[3.4]pyrazolo[5,1-b][1,3]thiazol-2-ylmethylene)-7-oxo-6-4-thia-1-azabicyclo[3.2.0]hept-2-ene-2-carboxylic acid] | 16
9 | O=C(O)C1=CS[C@@H]2/C(=C\c3cn4c5c(sc4n3)CCC5)C(=O)N12 [Example 5, (5R),(6Z)-6-(6,7-dihydro-5H-cyclopenta[d]imidazo[2,1-b][1,3]thiazol-2-ylmethylene)-7-oxo-4-thia-1-azabicyclo[3.2.0]hept-2-ene-2-carboxylic acid] | 2
10 | O=C(O)C1=CS[C@@H]2/C(=C\c3cn4c(nc5ccccc54)s3)C(=O)N12 [Example 17, (5R),(6Z)-7-oxo-6-([1,3]thiazolo[3,2-a]benzimidazol-2-ylmethylene)-4-thia-1-azabicyclo[3.2.0]hept-2-ene-2-carboxylic acid] | 32
11 | O=C([O-])C1=CS[C@@H]2C(=Cc3cc4n(n3)Cc3ccccc3OC4)C(=O)N12.[Na+] [Example 11, (5R,6E&Z)-7-oxo-6-(4H,10H-pyrazolo[5,1-c][1,4]benzoxazepin-2-ylmethylene)-4-thia-1-azabicyclo[3.2.0]hept-2-ene-2-carboxylic acid, sodium salt] | 4
12 | O=C(O)C1=CS[C@@H]2/C(=C\c3ccc4c(c3)sc3nccn34)C(=O)N12 [Example 16, (5R),(6Z)-6-(imidazo[2,1-b]bebzothiazol-7-ylmethylene)-7-oxo-4-thia-1-azabicyclo[3.2.0]hept-2-ene-2-carboxylic acid] | 32
13 | O=C(O)C1=CS[C@@H]2/C(=C\c3cn4c(n3)sc3cc(Cl)ccc34)C(=O)N12 [Example 3] | 2
14 | (5R,6Z)-7-oxo-6-(4H-thieno[2′,3′:4,5]thiopyrano[2,3-b]pyridin-2-ylmethylene)-4-thia-1-azabicyclo[3.2.0]hept-2-ene-2-carboxylic acid (Sodium salt) [Example 21] | 64
15 | O=C([O-])C1=CS[C@@H]2/C(=C\c3cn4c(n3)-c3ccccc3C4)C(=O)N12.[Na+] [Example 12, (5R),(6Z)-6-(5H-Imidazo[2,1-a]isoindol-2-ylmethylene)-7-oxo-4-thia-1-aza-bicyclo[3.2.0]hept-2-ene-2-carboxylic acid sodium salt] | 16
16 | CCOC(=O)N1CCc2c(oc3cc(/C=C4/C(=O)N5C(C(=O)[O-])=CS[C@H]45)nn23)C1.[Na+] [Example 33] | 8
17 | O=C(O)C1=CS[C@@H]2/C(=C\c3cn4c(n3)sc3cc(F)ccc34)C(=O)N12 [Example 14] | 4
18 | Cc1ccc2c(c1)sc1nc(/C=C3/C(=O)N4C(C(=O)O)=CS[C@H]34)cn12 [Example 7] | 2
19 | O=C([O-])C1=CS[C@@H]2/C(=C\c3cn4c(n3)nc3n4CCCC3)C(=O)N12.[Na+] [Example 8, (5R),(6Z)-6-(4,5,6,7-tetrahydro-1,3a,3b,8-tetraaza-cyclopenta[a]indene-2-ylmethylene)-7-oxo-4-thia-1-aza-bicyclo[3.2.0]hept-2-ene-2-carboxylic acid sodium salt] | 2
20 | O=C([O-])C1=CS[C@@H]2/C(=C\c3cccc4nc5n(c34)CCS5)C(=O)N12.[Na+] [Example 28, (5R,6Z)-6-(2,3-dihydro[1,3]thiazolo[3,2-a]benzimidazol-4-ylmethylene)-7-oxo-4-thia-1-azabicyclo[3.2.0]hept-2-ene-2-carboxylic acid, sodium salt] | 16

Tested on: not given
Test: not given
Conditions: not given

Row | melting point | Molecule
21 | > 250 °C | O=C([O-])C1=CS[C@@H]2/C(=C\c3ccc4nc5sccn5c4c3)C(=O)N12.[Na+] [Example 30, (5R,6Z)-7-oxo-6-([1,3]thiazolo[3,2-a]benzimidazol-6-ylmethylene)-4-thia-1-azabicyclo[3.2.0]hept-2-ene-2-carboxylic acid, sodium salt]
22 | > 250 °C | O=C([O-])C1=CS[C@@H]2/C(=C\c3ccc4nc5n(c4c3)CCCS5)C(=O)N12.[Na+] [Example 29, (5R,6Z)-6-(3,4-dihydro-2H-[1,3]thiazino[3,2-a]benzimidazol-7-ylmethylene)-7-oxo-4-thia-1-azabicyclo[3.2.0]hept-2-ene-2-carboxylic acid, sodium salt]
23 | > 250 °C (dec.) | O=C([O-])C1=CS[C@@H]2/C(=C\c3nc4ncc5c(n4n3)CCC3(C5)OCCO3)C(=O)N12.[Na+] [Example 24, (5R,6Z)-6-(8′,9′-dihydro-6′H-spiro[1,3-dioxolane-2,7′-[1,2,4]triazolo[1,5-a]quinazolin]-2′-ylmethylene)-7-oxo-4-thia-1-azabicyclo[3.2.0]hept-2-ene-2-carboxylic acid, sodium salt]
24 | 250 °C (dec.) | Cc1nc2nc(/C=C3/C(=O)N4C(C(=O)[O-])=CS[C@H]34)nn2c2c1CCCC2.[Na+] [Example 25, (5R,6Z)-6-[(5-methyl-6,7,8,9-tetrahydro[1,2,4]triazolo[1,5-a]quinazolin-2-yl)methylene]-7-oxo-4-thia-1-azabicyclo[3.2.0]hept-2-ene-2-carboxylic acid, sodium salt]
25 | > 250 °C | O=C([O-])C1=CS[C@@H]2/C(=C\c3cn4c5c(c(OCCOCc6ccccc6)nc4n3)CCC5)C(=O)N12.[Na+] [Example 27, (5R,6Z)-6-({5-[2-(benzyloxy)ethoxy]-7,8-dihydro-6H-cyclopenta[e]imidazo[1,2-a]pyrimidin-2-yl}methylene)-7-oxo-4-thia-1-azabicyclo[3.2.0]hept-2-ene-2-carboxylic acid, sodium salt]
